# Data reported in patent US20150182583A1, “METHODS FOR TREATMENT AND PREVENTION OF TAUOPATHIES BY INHIBITING ENDOTHELIN RECEPTORS” (Board of Regents, The University of Texas System, priority 2012, published 2015).
# Entries after “also recorded” stand apart in the source; their conditions may differ. Non-standard residues stand in square brackets, D forms with d. Residues, ends and D or L forms follow the SMILES beside them. dGly(5-dibenzosuberyl) = N[C@@H](C(=O)O)C1c2ccccc2CCc2ccccc21
# How the values were obtained:
# TAU [1] = assay: Mouse model of chemo-brain (paclitaxel or TMZ), TAU immunohistochemistry; type: in vivo; conditions: for TAU production/expression in brain caused by the chemotherapeutic: mice bearing brain cancer (LN229 GBM) or normal mice, paclitaxel 8 mg/kg i.p. twice per week, TMZ 7.5 mg/kg p.o. daily
# Experimental: The following methods were used to test for the in vivo effect of a dual endothelin receptor on a mouse model of chemo-brain. PD145065: SIGMA (SCP0143, 5 mg) was reconstituted in PBS containing 0.1% BSA. Temozolomide (TMZ): SIGMA (T2577-100 MG), was reconstituted in DMSO (10 mg/mL) with sonication and diluted in HBSS before treatment TAXOL (paclitaxel): Hospira (NDC 61703-342-09, 6 mg/mL) was diluted in saline before treatment. Mice were treated for 6 weeks with either TMZ (7.5 mg/kg, p.o., daily) or paclitaxel (8 mg/kg, i.p., twice per week) with or without PD145065 (10 mg/kg, i.p., daily). Treatment groups were as follows:
# Mice were euthanized and the brains were collected and frozen (OCT) or placed in formalin and embedded in paraffin and then processed for IHC. Female nude mice were treated with Taxol (8 mg/kg) i.p. twice per week for six weeks. […] Female nude mice were treated orally with 7.5 mg/kg TMZ every day for six weeks.
# [2] = Body weight of mice treated with paclitaxel with or without PD145065; type: in vivo, mouse
# Experimental: Studies to evaluated prevention and/or treatment of chemo-brain by PD145065 were performed. Female athymic nude mice (NCI-nu) were used in these studies. Mice were used in these experiments in accordance with institutional guidelines when they were 14-16 weeks old. Mice were randomized as follows;
# Mice showing weight loss, dehydration (poor skin tugor) or poor movement (poor oral intake, decreased ambulation, etc.) were defined as symptomatic mice.
# Prevention and/or treatment of Chemo-brain by PD145065 was evaluated via the following protocol. Treatment continued for 12 weeks and treatment and prevention groups were defined as follows: […]
# (1) Treatment group—mice receiving TMZ or taxol (group 3 or 4) and showing symptoms defined above for two consecutive weeks began to receive PD145065;
# (3) Prevention group—mice were receiving (PD+TMZ) or (PD+taxol) for 12 weeks (group 5 or 6).
# [3] = system: ET-1 stimulated astrocytes; assay: Real-time PCR of APOE/TAU mRNA in ET-1 stimulated astrocytes; type: cell-based, murine; conditions: ET-1 (100 nM) 24 hr; PD145065 (1 μM) added 2 hrs prior to ET-1; FIG. 12
# Experimental: FIG. 12: Expression level of APOE and TAU expression level in control astrocytes and astrocytes treated with BQ123 plus […] or PD145065. Treatment groups were as follows: Control, ET-1 (100 nM), ET-1+BQ123/BQ788 (1 μM), ET-1+PD145065 (1 μM). Cells were treated with ET-1 for 24 hr. BQ123, BQ788 or PD145065 was added 2 hrs prior to ET-1 stimulation.
# (§1) To determine whether ETs upregulation in astrocytes culture with tumor cells, we performed in vitro coculture experiments. Astrocytes and NIH 3T3 fibroblasts were transfected with green fluorescent protein (GFP) genes. […] RT-PCR was performed using TaqMan® Universal PCR MasterMix and quantified with an ABI 7500 real time PCR system (Applied Biosystems, Foster City, Calif.). […] Relative mRNA expression was calculated according to the AACt method, and expressed as mean±S.D. of mRNA relative to that of control.
# as §1, with “Astrocytes” for “To determine whether ETs upregulation in astrocytes culture with tumor cells, we performed in vitro coculture experiments. Astrocytes”, “method” for “method,”
# MDA231 = assay: Tumor cell-astrocyte protection assay (MDA231 protection assay); type: cell-based, human; conditions: FIG. 15
# ETA and ETB receptors = assay: Immunohistochemistry of endothelin receptor phosphorylation (with the protection assay); type: cell-based; conditions: FIG. 15
# Excerpt: Next the inventor used the compound PD 145065, which is a dual endothelin receptor inhibitor (antagonist), in further experiments. […] PD145065 may be administered orally to mice. Based on the in vitro data, it is anticipated that PD145065 may be used to decrease TAU in the brain in vivo.
# TAU [4] = assay: Mouse model of brain trauma (parenchymal wound), TAU immunofluorescent staining; type: in vivo; conditions: 10 mg/kg/day i.p. for 5 days prior to wounding, continued 3 days after; brains harvested 3 days after wounding
# Excerpt: Brain parenchymal wound was created by inserting a needle (32 G-21 G) by stereotactic injection unit. In brief, a mouse was anesthetized with Nembutal ([…]) and fixed in the stereotactic injection unit. Skin incision was made in the forehead and a hole was made in the calvaria with a 21 G needle. Injection needle was inserted into the brain parenchyma (4-mm depth) and withdrawn. Hole was blocked with bone wax and skin incision was closed with skin staples.
# (§2) A mouse model of brain trauma was used to evaluate the effect of a dual endothelin receptor antagonist (PD 145065) on TAU expression after a brain trauma. A parenchyma mouse model of brain trauma was used such that mice received a stereotaxically administered wound to the brain Immunochemistry was performed on brain samples to evaluate GFAP and TAU expression.
# (§3) The mice were euthanatized 1, 2, or 4 days after creating the wound in the brain parenchyma. The brains were removed, fixed in formalin and stained for GFAP or (GFAP and TAU) using immunofluorescent staining.
# (§4) Mice were pretreated with PD145065 10 mg/kg/day i.p. injection for 5 days prior to brain wounding. Control mice received saline injections. Treatment continued for 3 days after wounding. The brains were harvested 3 days after wounding and immunofluorescent staining immunohistochemistry experiments were performed.
# [5] = system: endothelin receptors A and B; assay: Mouse model of brain trauma, endothelin receptor phosphorylation; type: in vivo; conditions: 10 mg/kg/day i.p. for 5 days prior to wounding, continued 3 days after
# GFAP = assay: Mouse model of brain trauma, GFAP staining; type: in vivo; conditions: 10 mg/kg/day i.p. for 5 days prior to wounding, continued 3 days after
# Experimental: as §2, §3, §4
# TAU [6] = assay: Chronic hypoxia (hypoxia chamber) in mice, TAU immunohistochemistry; type: in vivo, mouse; conditions: hypoxia chamber 1-3 days; daily i.p. injections, or pretreatment 7 days before 48 hours of hypoxia
# Experimental: (§5) Mice were placed in a sealed plexiglass chamber with controlled input of oxygen-nitrogen gas to establish an oxygen level of 5.705% oxygen. One to 3 days later, the mice are euthanized or placed in room air (normoxia). The brains are harvested, fixed in formalin, or frozen for histology/immunohistochemistry examination. Staining for GFAP (astrocytes), TAU, endothelin receptor A or B (phosphorylation) was carried out.
# Mice were placed in a hypoxia chamber for 1-3 days are taken out and divided into 2 groups: (1) treated with PD145065 (dual endothelin receptor inhibitor), or (2) saline. Treatments are by daily i.p. injections. The brains of control and treated mice are harvested 2-5 days later and processed for histological examination Immunohistochemistry for GFAP, TAU, ETAR, and ETBR (phosphorylation) was carried out.
# as §5, with “The following methods were used for the chronic hypoxia (hypoxia chamber) experiments. Mice” for “Mice”, “were” for “are”, “phosphorylation” for “(phosphorylation)”, “out. […]” for “out.”
compound,measurement,setting,value
CC(=O)O[C@H]1C(=O)[C@@]2(C)[C@H]([C@H](OC(=O)c3ccccc3)[C@]3(O)C[C@H](OC(=O)[C@H](O)[C@@H](NC(=O)c4ccccc4)c4ccccc4)C(C)=C1C3(C)C)[C@]1(OC(C)=O)CO[C@@H]1C[C@@H]2O [paclitaxel],TAU production/expression in brain caused by the chemotherapeutic,TAU [1],result in the production of TAU
same,TAU production/expression in brain caused by the chemotherapeutic,TAU [1]; listed as Taxol,high expression of TAU
same,body weight of paclitaxel-treated mice,"[2]; paclitaxel alone, FIG. 22",loss of weight
"CC[C@H](C)[C@H](NC(=O)[C@H](CC(=O)O)NC(=O)[C@H](CC(C)C)NC(=O)[C@H](NC(C)=O)C1c2ccccc2CCc2ccccc21)C(=O)N[C@H](C(=O)N[C@@H](Cc1c[nH]c2ccccc12)C(=O)O)[C@@H](C)CC [PD145065, N-Acetyl-α-[10,11-Dihydro-5H-dibenzo[a,d]cycloheptadien-5-yl]-D-Gly-Leu-Asp-Ile-Ile-Trp] (Ac-[dGly(5-dibenzosuberyl)]LDIIW-OH)",APOE/TAU mRNA expression,[3],observed to have an effect
same,blocking the ability of astrocytes protection of tumor cells from chemotherapy,MDA231,as effective as the combination of BQ123 and BQ788
same,phosphorylation of ETA and ETB receptors,ETA and ETB receptors,can prevent phosphorylation
same,TAU expression / TAU positive cells in brain after wound,TAU [4],not in brains of mice pretreated; also recorded: significantly diminished or eliminated; also recorded: negative; also recorded: reduced tau expression
same,"phosphorylation of endothelin receptors A and B (ETAR, ETBR) in wounded brain",[5],inhibited phosphorylation; also recorded: reduced phosphorylation or be not phosphorylated
same,GFAP in wounded brain,GFAP,unchanged; also recorded: contain activated (GFAP-positive) astrocytes
same,TAU expression in brain resulting from hypoxia,TAU [6],inhibited TAU expression; also recorded: significantly lower than in the brains of control mice; also recorded: reduced tau expression; also recorded: significant decrease in TAU expression
same,TAU expression in brain of mice treated with paclitaxel or TMZ,"TAU [1]; PD145065 10 mg/kg i.p. daily, 6 weeks, TMZ 7.5 mg/kg p.o. daily or paclitaxel 8 mg/kg i.p. twice per week",significantly reduced TAU expression
same,"weight loss associated with paclitaxel, prevention (co-administration)","[2]; PD 10 mg/kg i.p. daily plus taxol 8 mg/kg i.p. twice per week, FIG. 23",completely inhibit the weight loss
same,"weight loss associated with paclitaxel, treatment group","[2]; PD145065 given to mice receiving paclitaxel beginning on day 49, FIG. 22",reversal of the weight loss
Cn1nnc2c(C(N)=O)ncn2c1=O [temozolomide],TAU production/expression in brain caused by the chemotherapeutic,TAU [1],result in the production of TAU
same,TAU production/expression in brain caused by the chemotherapeutic,TAU [1]; listed as TMZ,high expression of TAU
